Reference: US20040014047A1, “Antisense modulation of LIM domain kinase 1 expression” (Isis Pharmaceuticals Inc., priority 2002, published 2004)
Strand notation (5' to 3'): a small letter for the sugar, then the base; units joined by * are phosphorothioate-linked, units joined directly phosphodiester-linked; [ ] holds rarer units or linkages, { } end groups; capitals alone tell only the bases. e = 2'-O-(2-methoxyethyl) (MOE); [5mC] = 5-methylcytosine; d = 2'-deoxy (DNA)

Columns and labels:
[1] = tested on: LIM domain kinase 1 mRNA; assay: Antisense inhibition of LIM domain kinase 1 expression, dose response in A549 cells, real-time quantitative PCR; type: cell-based, human; settings: for Percent Inhibition of LIM Domain Kinase 1 mRNA Levels: averaged from two experiments, normalized to untreated control; for reduction of LIM domain kinase 1 mRNA levels (dose response): 6, 25, 100 and 400 nM
Method: When cells reached 70% confluency, they were treated with oligonucleotide. […] Cells were harvested 16-24 hours after oligonucleotide treatment.
PCR reagents were obtained from Invitrogen Corporation, (Carlsbad, Calif.).
Probes and primers to human LIM domain kinase 1 were designed to hybridize to a human LIM domain kinase 1 sequence, using published sequence information (GenBank accession number D26309.1, incorporated herein as SEQ ID NO:4). For human LIM domain kinase 1 the PCR primers were: forward primer: […] (SEQ ID NO: 5) reverse primer: […] (SEQ ID NO: 6) and the PCR probe was: FAM-[…]-TAMRA (SEQ ID NO: 7) where FAM is the fluorescent dye and TAMRA is the quencher dye.
In accordance with the present invention, three of the oligonucleotides targeted to LIM domain kinase 1: ISIS 206212 ([…], SEQ ID NO: 67), ISIS 206219 ([…], SEQ ID NO: 74) and ISIS 206214 ([…], SEQ ID NO: 69) were investigated in a dose response experiment. The scrambled control oligonucleotides used in the dose response study were ISIS 129695 ([…], SEQ ID NO: 147), and ISIS 114845 ([…], SEQ ID NO: 148).
All cytidine residues are 5-methylcytidines.
In the dose-response experiment, with mRNA levels as the endpoint, A549 cells were treated with ISIS 206212, ISIS 206219, ISIS 206214 and control oligonucleotides at doses of 6, 25, 100 and 400 nM oligonucleotide. Data were obtained by real-time quantitative PCR as described in other examples herein and are averaged from two experiments with mRNA levels in the treatment groups, (including the scrambled control), being normalized to an untreated control group.

[2] = tested on: human LIM domain kinase 1 mRNA; assay: Antisense inhibition of human LIM domain kinase 1 mRNA levels, quantitative real-time PCR, A549 cells (screen); type: cell-based; settings: for % INHIB (inhibition of human LIM domain kinase 1 mRNA levels): quantitative real-time PCR, averages from two experiments, screening concentration not given (50 nM to 300 nM used herein); for inhibition of human LIM domain kinase 1 expression (text summary of Table 1): real-time PCR, bound stated
Outline: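 A549 cells at 70% confluency treated with antisense oligonucleotides (all cytidines 5-methylcytidine), harvested 16-24 h later. LIMK1 mRNA measured by real-time RT-PCR with FAM/TAMRA probe, normalized to total RNA by RiboGreen; values are averages of two experiments.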

## 114845 (eT*eA*e[5mC]*eG*eT*d[5mC]*d[5mC]*dG*dG*dA*dG*dG*d[5mC]*dG*dT*eA*e[5mC]*eG*e[5mC]*e[5mC]) [compound 114845]
[1]; dose 6 nM
  Percent Inhibition of LIM Domain Kinase 1 mRNA Levels: 0%
[1]; dose 25 nM
  Percent Inhibition of LIM Domain Kinase 1 mRNA Levels: 0%
[1]; dose 100 nM
  Percent Inhibition of LIM Domain Kinase 1 mRNA Levels: 0%
[1]; dose 400 nM
  Percent Inhibition of LIM Domain Kinase 1 mRNA Levels: 24%

## 129695 (eT*eT*e[5mC]*eT*eA*d[5mC]*d[5mC]*dT*d[5mC]*dG*d[5mC]*dG*d[5mC]*dG*dA*eT*eT*eT*eA*e[5mC]) [compound 129695]
[1]; dose 6 nM
  Percent Inhibition of LIM Domain Kinase 1 mRNA Levels: 2%
[1]; dose 25 nM
  Percent Inhibition of LIM Domain Kinase 1 mRNA Levels: 0%
[1]; dose 100 nM
  Percent Inhibition of LIM Domain Kinase 1 mRNA Levels: 12%
[1]; dose 400 nM
  Percent Inhibition of LIM Domain Kinase 1 mRNA Levels: 62%

## 206212 (antisense eA*e[5mC]*eT*e[5mC]*e[5mC]*d[5mC]*d[5mC]*dA*dT*dT*dT*dG*dG*dT*dT*e[5mC]*e[5mC]*eT*eG*eG) [compound 206212]
[2]
  % INHIB (inhibition of human LIM domain kinase 1 mRNA levels): 91%
[1]; dose 6 nM
  Percent Inhibition of LIM Domain Kinase 1 mRNA Levels: 0%
[1]; dose 25 nM
  Percent Inhibition of LIM Domain Kinase 1 mRNA Levels: 73%
[1]; dose 100 nM
  Percent Inhibition of LIM Domain Kinase 1 mRNA Levels: 91%
[1]; dose 400 nM
  Percent Inhibition of LIM Domain Kinase 1 mRNA Levels: 97%

## 206214 (antisense e[5mC]*e[5mC]*eG*eG*e[5mC]*d[5mC]*dA*dG*dG*dG*d[5mC]*dA*d[5mC]*d[5mC]*dG*e[5mC]*eA*eG*e[5mC]*eT) [compound 206214]
[2]
  % INHIB (inhibition of human LIM domain kinase 1 mRNA levels): 87%
[1]; dose 6 nM
  Percent Inhibition of LIM Domain Kinase 1 mRNA Levels: 0%
[1]; dose 25 nM
  Percent Inhibition of LIM Domain Kinase 1 mRNA Levels: 46%
[1]; dose 100 nM
  Percent Inhibition of LIM Domain Kinase 1 mRNA Levels: 84%
[1]; dose 400 nM
  Percent Inhibition of LIM Domain Kinase 1 mRNA Levels: 98%

## 206219 (antisense eT*eG*e[5mC]*eA*e[5mC]*dT*dG*dA*dG*dA*dA*dA*dG*d[5mC]*dT*eT*e[5mC]*eA*e[5mC]*eA) [compound 206219]
[2]
  % INHIB (inhibition of human LIM domain kinase 1 mRNA levels): 89%
[1]; dose 6 nM
  Percent Inhibition of LIM Domain Kinase 1 mRNA Levels: 0%
[1]; dose 25 nM
  Percent Inhibition of LIM Domain Kinase 1 mRNA Levels: 67%
[1]; dose 100 nM
  Percent Inhibition of LIM Domain Kinase 1 mRNA Levels: 84%
[1]; dose 400 nM
  Percent Inhibition of LIM Domain Kinase 1 mRNA Levels: 93%

## actccccatttggttcctgg (eA*e[5mC]*eT*e[5mC]*e[5mC]*d[5mC]*d[5mC]*dA*dT*dT*dT*dG*dG*dT*dT*e[5mC]*e[5mC]*eT*eG*eG; antisense) [ISIS 206212]
[2]
  inhibition of human LIM domain kinase 1 expression (text summary of Table 1): at least 65%
[1]
  reduction of LIM domain kinase 1 mRNA levels (dose response): capable of reducing LIM domain kinase 1 mRNA levels in a dose-dependent manner

## ccggccagggcaccgcagct (e[5mC]*e[5mC]*eG*eG*e[5mC]*d[5mC]*dA*dG*dG*dG*d[5mC]*dA*d[5mC]*d[5mC]*dG*e[5mC]*eA*eG*e[5mC]*eT; antisense) [ISIS 206214]
[2]
  inhibition of human LIM domain kinase 1 expression (text summary of Table 1): at least 65%
[1]
  reduction of LIM domain kinase 1 mRNA levels (dose response): capable of reducing LIM domain kinase 1 mRNA levels in a dose-dependent manner

## ggcccagtagtccttcttgc (eG*eG*e[5mC]*e[5mC]*e[5mC]*dA*dG*dT*dA*dG*dT*d[5mC]*d[5mC]*dT*dT*e[5mC]*eT*eT*eG*e[5mC]; antisense) [ISIS 206174]
[2]
  inhibition of human LIM domain kinase 1 expression (text summary of Table 1): at least 65%

## ggcgtgccattgatttccaa (eG*eG*e[5mC]*eG*eT*dG*d[5mC]*d[5mC]*dA*dT*dT*dG*dA*dT*dT*eT*e[5mC]*e[5mC]*eA*eA; antisense) [ISIS 206186]
[2]
  inhibition of human LIM domain kinase 1 expression (text summary of Table 1): at least 65%

## ggtccttgcgctgggaggcc (eG*eG*eT*e[5mC]*e[5mC]*dT*dT*dG*d[5mC]*dG*d[5mC]*dT*dG*dG*dG*eA*eG*eG*e[5mC]*e[5mC]; antisense) [ISIS 206233]
[2]
  inhibition of human LIM domain kinase 1 expression (text summary of Table 1): at least 65%

## gtcaacctcatgcactcgac (eG*eT*e[5mC]*eA*eA*d[5mC]*d[5mC]*dT*d[5mC]*dA*dT*dG*d[5mC]*dA*d[5mC]*eT*e[5mC]*eG*eA*e[5mC]; antisense) [ISIS 206163]
[2]
  inhibition of human LIM domain kinase 1 expression (text summary of Table 1): at least 65%

## gtcacaacacctgcaggaga (eG*eT*e[5mC]*eA*e[5mC]*dA*dA*d[5mC]*dA*d[5mC]*d[5mC]*dT*dG*d[5mC]*dA*eG*eG*eA*eG*eA; antisense) [ISIS 206229]
[2]
  inhibition of human LIM domain kinase 1 expression (text summary of Table 1): at least 65%

## gtctcggtggatgatgttca (eG*eT*e[5mC]*eT*e[5mC]*dG*dG*dT*dG*dG*dA*dT*dG*dA*dT*eG*eT*eT*e[5mC]*eA; antisense) [ISIS 206202]
[2]
  inhibition of human LIM domain kinase 1 expression (text summary of Table 1): at least 65%

## gtggccctggctcagtcggg (eG*eT*eG*eG*e[5mC]*d[5mC]*d[5mC]*dT*dG*dG*d[5mC]*dT*d[5mC]*dA*dG*eT*e[5mC]*eG*eG*eG; antisense) [ISIS 206207]
[2]
  inhibition of human LIM domain kinase 1 expression (text summary of Table 1): at least 65%

## gtttctgccgggcagagctg (eG*eT*eT*eT*e[5mC]*dT*dG*d[5mC]*d[5mC]*dG*dG*dG*d[5mC]*dA*dG*eA*eG*e[5mC]*eT*eG; antisense) [ISIS 206189]
[2]
  inhibition of human LIM domain kinase 1 expression (text summary of Table 1): at least 65%

## tagcgggcccagtagtcctt (eT*eA*eG*e[5mC]*eG*dG*dG*d[5mC]*d[5mC]*d[5mC]*dA*dG*dT*dA*dG*eT*e[5mC]*e[5mC]*eT*eT; antisense) [ISIS 206175]
[2]
  inhibition of human LIM domain kinase 1 expression (text summary of Table 1): at least 65%

## tcacggtgtgtcaccttgat (eT*e[5mC]*eA*e[5mC]*eG*dG*dT*dG*dT*dG*dT*d[5mC]*dA*d[5mC]*d[5mC]*eT*eT*eG*eA*eT; antisense) [ISIS 206195]
[2]
  inhibition of human LIM domain kinase 1 expression (text summary of Table 1): at least 65%

## tccaggcatcgcatgacctt (eT*e[5mC]*e[5mC]*eA*eG*dG*d[5mC]*dA*dT*d[5mC]*dG*d[5mC]*dA*dT*dG*eA*e[5mC]*e[5mC]*eT*eT; antisense) [ISIS 206198]
[2]
  inhibition of human LIM domain kinase 1 expression (text summary of Table 1): at least 65%

## tccttcttgcagaagagctg (eT*e[5mC]*e[5mC]*eT*eT*d[5mC]*dT*dT*dG*d[5mC]*dA*dG*dA*dA*dG*eA*eG*e[5mC]*eT*eG; antisense) [ISIS 206172]
[2]
  inhibition of human LIM domain kinase 1 expression (text summary of Table 1): at least 65%

## tcgagggtcagctggagcag (eT*e[5mC]*eG*eA*eG*dG*dG*dT*d[5mC]*dA*dG*d[5mC]*dT*dG*dG*eA*eG*e[5mC]*eA*eG; antisense) [ISIS 206188]
[2]
  inhibition of human LIM domain kinase 1 expression (text summary of Table 1): at least 65%

## tgcactgagaaagcttcaca (eT*eG*e[5mC]*eA*e[5mC]*dT*dG*dA*dG*dA*dA*dA*dG*d[5mC]*dT*eT*e[5mC]*eA*e[5mC]*eA; antisense) [ISIS 206219]
[2]
  inhibition of human LIM domain kinase 1 expression (text summary of Table 1): at least 65%
[1]
  reduction of LIM domain kinase 1 mRNA levels (dose response): capable of reducing LIM domain kinase 1 mRNA levels in a dose-dependent manner

## tggatggaattcttcacatc (eT*eG*eG*eA*eT*dG*dG*dA*dA*dT*dT*d[5mC]*dT*dT*d[5mC]*eA*e[5mC]*eA*eT*e[5mC]; antisense) [ISIS 206183]
[2]
  inhibition of human LIM domain kinase 1 expression (text summary of Table 1): at least 65%

## tgtccatgctcttgatgatg (eT*eG*eT*e[5mC]*e[5mC]*dA*dT*dG*d[5mC]*dT*d[5mC]*dT*dT*dG*dA*eT*eG*eA*eT*eG; antisense) [ISIS 206199]
[2]
  inhibition of human LIM domain kinase 1 expression (text summary of Table 1): at least 65%

## ttcttccctccaggtgcaac (eT*eT*e[5mC]*eT*eT*d[5mC]*d[5mC]*d[5mC]*dT*d[5mC]*d[5mC]*dA*dG*dG*dT*eG*e[5mC]*eA*eA*e[5mC]; antisense) [ISIS 206166]
[2]
  inhibition of human LIM domain kinase 1 expression (text summary of Table 1): at least 65%
